Here are results for 13 molecules from PubChem BioAssay (NCI).

Among the test systems are HCC-2998 colon; HT29 colon; U251 CNS; UACC-62 melanoma; SF-295 CNS; HCT-116 colon; COLO 205 colon; K-562 leukemia; A498 renal; SK-MEL-28 melanoma.
Holding throughout (test): inhibition of tumour cell growth, NCI panel, 48 h

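Protocol summary: plate cells (96-well), add compound at 5 concentrations, incubate 48 h, interpolate endpoints linearly. GI50 = concentration required for 50% inhibition of growth. TGI: total growth inhibition.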 *1 amine or outer side, *2 acyl side, *3 side chain or, on linkers, in order; H or OH if unused. Where a SMILES comes first, the peptide text is derived from it. Bridges are numbered along the chain shown (N, C = ends). Roman numbers before positions name the chains, in order. [ ]: non-standard residue; d: D form. Actinocin(9to1) = Cc1c2oc3c(C)ccc(C(=O)[*:1])c3nc-2c(C(=O)[*:2])c(N)c1=O; NMeH = CN[CH](Cc1c[nH]cn1)C(=O)O; Sar = CNCC(=O)O

Take `C#C[C@]1(O)CC[C@H]2[C@@H]3CCC4=C/C(=N/NC(=O)c5cccc6c(=O)c7ccccc7[nH]c56)CCC4[C@H]3CC[C@@]21C` (stereo partly drawn): the TGI in the test with HCC-2998 colon, in the test on HT29 colon, in the test with U251 CNS, in the test with UACC-62 melanoma, in the test with SF-295 CNS and with HCT-116 colon was over 100 µM in each case. Moreover, the TGI with COLO 205 colon and with K-562 leukemia was over 100 µM throughout.
As to `CN1/C(=C/C=C/C=C/C=C2C(=O)c3ccccc3C2=O)C(C)(C)c2ccccc21`, the TGI in the test with HT29 colon was over 100 µM; in the test on UACC-62 melanoma it was 58.3 µM; with SF-295 CNS it was over 100 µM; with A498 renal, 65.2 µM; with HCT-116 colon, over 100 µM; in the test with COLO 205 colon it was over 100 µM. In addition, the TGI in the test on K-562 leukemia was over 100 µM.
For `Cc1c2oc3c(C)ccc(C(=O)NC4C(=O)NC(C(C)C)C(=O)N5CCCC5C(=O)N(C)CC(=O)N(C)C(Cc5cnc[nH]5)C(=O)OC4C)c3nc-2c(C(=O)NC2C(=O)NC(C(C)C)C(=O)N3CCCC3C(=O)N(C)CC(=O)N(C)C(Cc3cnc[nH]3)C(=O)OC2C)c(N)c1=O` (stereo not drawn) (I: TVP[Sar][NMeH] / II: TVP[Sar][NMeH]; ester I:1-I:C, II:1-II:C; linker I:N-II:N via Actinocin(9to1); configuration not given here), the TGI in the test on HCC-2998 colon, in the test on HT29 colon, in the test with U251 CNS, in the test on UACC-62 melanoma, in the test with SF-295 CNS and in the test with SK-MEL-28 melanoma was over 100 µM in each case. In addition, the TGI in the test with COLO 205 colon and in the test on K-562 leukemia was over 100 µM each time.
Take `COc1cc(/C=C2\CC/C(=C\c3cc(OC)c(O)c(OC)c3)C2=O)cc(OC)c1O`: the TGI with HCC-2998 colon is 3.38 µM; in the test with HT29 colon it was over 100 µM; with U251 CNS, over 49.2 µM; with UACC-62 melanoma, 3.8 µM; with SF-295 CNS it was over 100 µM; in the test with A498 renal, 2.86 µM. The TGI was over 23.2 µM in the test on HCT-116 colon, 54.2 µM in the test on COLO 205 colon and 14.2 µM in the test with K-562 leukemia.
As to `CN(Cc1cnc2nc(N)nc(N)c2n1)c1ccc(C(=O)NC23CC4CC(CC(C4)C2)C3)cc1`, the TGI was 44.3 µM in the test with U251 CNS; 19.3 µM with UACC-62 melanoma; 21.1 µM with SF-295 CNS; over 100 µM in the test with A498 renal; over 100 µM in the test on HCT-116 colon; 24 µM with COLO 205 colon. The molecule also gave a TGI in the test on K-562 leukemia of 65.8 µM.
As to `C#CC(O)(c1nc2ccccc2s1)c1nc2ccccc2s1`, the TGI in the test with HT29 colon is 77.6 µM; with U251 CNS, 44 µM; in the test on UACC-62 melanoma it was 26.1 µM; in the test with SF-295 CNS, 76.8 µM; in the test on SK-MEL-28 melanoma it was over 100 µM; with A498 renal, 35.2 µM. Further, the values for the TGI in the test on HCT-116 colon, in the test on COLO 205 colon and in the test with K-562 leukemia were 30.2 µM, 40 µM and over 100 µM, respectively.
For the molecule `CN1CCN(Cc2c[nH]c3c2C(=O)c2c(c(O)c4ccccc4c2O)C3=O)CC1`, the GI50 in the test with HCC-2998 colon is 11.2 µM; with HT29 colon, 26.3 µM; in the test on U251 CNS, 11.1 µM; in the test on UACC-62 melanoma, 16.5 µM; with SF-295 CNS, 15 µM; with SK-MEL-28 melanoma, 19.6 µM. Moreover, the GI50 with HCT-116 colon was 1.92 µM; in the test with COLO 205 colon, 31.7 µM; in the test with K-562 leukemia it was 2.82 µM. The TGI in the test with HCC-2998 colon was 23.3 µM; with HT29 colon it was over 100 µM; in the test on U251 CNS, 27.9 µM; in the test with UACC-62 melanoma, 31.6 µM; with SF-295 CNS, 35.4 µM; in the test with SK-MEL-28 melanoma, 38.3 µM. The TGI is 10.5 µM with HCT-116 colon, 70.7 µM in the test with COLO 205 colon and over 100 µM with K-562 leukemia.
Turning to `CCc1cccc2c3c([nH]c12)-c1ccccc1NC(=O)C3`, the TGI with HT29 colon, with U251 CNS, in the test on UACC-62 melanoma, with SF-295 CNS, with SK-MEL-28 melanoma and in the test on A498 renal was over 100 µM in each case. Also, the TGI in the test with COLO 205 colon and with K-562 leukemia was over 100 µM in each case.
As for `ClC(Cl)(Cl)C1CCOC1n1nnc2ccccc21` (stereo not drawn), the TGI in the test with HCC-2998 colon, in the test on HT29 colon, in the test with U251 CNS, in the test with UACC-62 melanoma, in the test on SF-295 CNS and in the test on A498 renal was over 100 µM throughout. Besides, the TGI with HCT-116 colon is over 100 µM; with COLO 205 colon it was over 100 µM; in the test with K-562 leukemia, 63.9 µM.
As for `CC[C@@]1(O)C(=O)OCc2c1cc1n(c2=O)Cc2c-1nc1ccc(O)cc1c2[Si](C)(C)C(C)(C)C`, the TGI in the test with HCC-2998 colon amounted to 0.401 µM; in the test on HT29 colon, 4.39 µM; in the test on U251 CNS, 0.0192 µM; in the test with UACC-62 melanoma, 0.164 µM; with SF-295 CNS, 1.32 µM; with SK-MEL-28 melanoma it was 10.7 µM. The TGI with HCT-116 colon was 0.147 µM; in the test with COLO 205 colon, 1.53 µM; with K-562 leukemia it was over 94.5 µM.
For `NS(=O)(=O)c1nc(S(=O)(=O)O)c2[nH]cnc2n1`, the TGI in the test on HT29 colon, in the test on U251 CNS, with UACC-62 melanoma, in the test with SF-295 CNS, in the test on SK-MEL-28 melanoma and in the test with A498 renal was over 100 µM throughout. In addition, the TGI in the test with HCT-116 colon, with COLO 205 colon and with K-562 leukemia was over 100 µM in each case.
For `CCOC(=O)c1ccc(Nc2nc3ccccc3nc2-c2cccs2)cc1`, the TGI was 77.7 µM in the test on HCC-2998 colon; over 100 µM in the test on U251 CNS; 33.6 µM with UACC-62 melanoma; over 100 µM in the test with SF-295 CNS; over 100 µM in the test with SK-MEL-28 melanoma; over 100 µM in the test on HCT-116 colon. For the same molecule, the TGI with COLO 205 colon and with K-562 leukemia was over 100 µM throughout.
As to `c1nc(NCCc2cnc[nH]2)c2[nH]cnc2n1`, the TGI in the test with HT29 colon, in the test on U251 CNS, with UACC-62 melanoma, in the test on SF-295 CNS, with SK-MEL-28 melanoma and in the test with A498 renal was over 100 µM each time. Also, the TGI with HCT-116 colon, in the test on COLO 205 colon and in the test with K-562 leukemia was over 100 µM throughout.
